Experimental data as given in patent US20130178436A1, “COMPOSITION FOR PREVENTING, IMPROVING, OR TREATING RENAL DISEASE INCLUDING MAILLARD BROWNING REACTION PRODUCTS OF PANAX SPECIES PLANT EXTRACT” (Korea Institute of Science and Technology, priority 2012, published 2013).
Marks after values point to notes of the source that are not given here.

Columns and labels:
LLC-PK1 cells = experiment: Protective activity for renal cells against AAPH-induced oxidative damage (MTT viability); assay type: cell-based; conditions: 10 mM AAPH
Source text: Renal cells, i.e., LLC-PK1 cell lines, are vulnerable to oxidative damage, and AAPH, which is a radical releasing agent, combines with oxygen molecules at a very rapid speed to produce a peroxyl radical and trigger lipid peroxidation, resulting in cytotoxicity (Miki et al., Arch. Biochem. Biophy., 258(2), 373-380, 1987). Thus, a protective activity for renal cells may be evaluated using such an oxidative damage of the LLC-PK1 cell lines using AAPH.
A protective effect for nephrotoxicity was evaluated using renal cells (LLC-PK1) with reference to a method reported in the publication (Yokozawa et al., Food Chem., 48, pp5068-5073, 2000) as follows.
First, the LLC-PK1 cells were cultured in an incubator with conditions of 37° C., 95% air, and 5% CO2 by using a DMEM/F12 medium (Gibco BRL Life Technologies, Grand Island, NY, USA) supplemented with 5% fetal bovine serum (Gibco BRL Life Technologies), 50 units/ml of penicillin G, and 50 μg/ml of streptomycin (Gibco BRL Life Technologies). The incubated LLC-PK1 cells were introduced into a 96-well incubation plate at a concentration of 10^4 […] and then stabilized for 2 hours. Afterwards, a radical generating reagent (i.e., 10 mM AAPH dissolved in a medium) was added to each well and cultured for 24 hours, and 50 μl of an MTT (1 mg/ml) reagent was then added to each well and incubated at 37° C. 4 hours thereafter, the medium containing MTT was removed and 100 μl of dimethyl sulfoxide was added to each well. Then, absorbance of the sample was measured using a detection wavelength of 540 nm in a SPECTRAmax 340PC (Molecular Devices, Sunnyvale, Calif., USA) microplate reader and a viability of the LLC-PK1 cells was measured using the absorbance thereof.

[1] = DPPH radical scavenging ability (antioxidative activity); assay type: biochemical; conditions: 60 μM DPPH, 30 minutes; FIGS. 5 to 13
Method: A DPPH radical scavenging ability was evaluated using a modified method from that described by Hatano et al (Hatano et al., Chem. Pharm. Bull., 37(8), pp 2016-2021, 1989). 100 μl of 60 μM DPPH was added to 100 μl of each of a plurality of sample solutions, the resultant solution was stirred and left for 30 minutes, and the absorbance of the resultant mixture was measured at 540 nm. An antioxidative activity (electron donating ability) was confirmed by measuring a decreasing ratio in absorbances of experimental groups comparing with a control of the sample solutions.

Row | Compound | viability at 10 µg/mL (LLC-PK1 cells; Sus scrofa, sample 10 μg/ml, 24 hours, MTT, read-out: Cell viability) [%] | viability at 100 µg/mL (LLC-PK1 cells; Sus scrofa, sample 100 μg/ml, 24 hours, MTT, read-out: Cell viability) [%] | DPPH radical scavenging ability (in words) [1] | protective activity for renal cells (in words) (LLC-PK1 cells) | Cell viability (LLC-PK1 cells; sample 10 μg/ml, 24 hours, MTT)
1 | N=C(N)NN [aminoguanidine] | 86.7 ± 14.2 | 88 ± 4.1 | – | – | –
2 | CC(C)=CCC[C@](C)(O[C@@H]1O[C@H](CO)[C@@H](O)[C@H](O)[C@H]1O)[C@H]1CC[C@]2(C)[C@@H]1[C@H](O)C[C@@H]1[C@@]3(C)CC[C@H](O)C(C)(C)[C@@H]3[C@@H](O[C@@H]3O[C@H](CO)[C@@H](O)[C@H](O)[C@H]3O[C@@H]3O[C@@H](C)[C@H](O)[C@@H](O)[C@H]3O)C[C@]12C [ginsenoside Re] | – | – | low reactive oxygen scavenging ability | inhibited cell damage at a high concentration | 89.6 ± 9.7^a %
